# Source: the NIST ThermoML archive (doi:10.1016/j.jct.2008.08.012)
# Numbers after ± are expanded uncertainties.
# Key:
# [1] = Crystal; for mass density: 298.15 K, 101.33 kPa, mass and volume of pellet; for Normal melting temperature: DTA
# [2] = Molar enthalpy of transition or fusion; conditions: Crystal; DSC
mass density [1],Normal melting temperature [1],Molar enthalpy of transition or fusion [2],SMILES
1140 ± 10 kg/m3,82.73 ± 0.39 °C,4.37 ± 0.112 kcal/mol,"O=C1Cc2ccccc2CO1 [1,4-dihydro-3H-2-benzopyran-3-one]"
1140 ± 10 kg/m3,39.13 ± 0.39 °C,4 ± 0.129 kcal/mol,"O=C1CCOc2ccccc21 [2,3-dihydro-4H-1-benzopyran-4-one]"
